Source: US7087758B2, “Quinoline inhibitors of hyaki and hyak3 kinases” (SmithKline Beecham Corporation, priority 2001, dated 2006)
“And” between values parts separate entries of the source, which are not always exact repeats. Equal values may be shown once.

Biological target: T1, hYAK1 (Homo sapiens, UniProt Q92630)
T1 construct: DET1/DET2-tagged full length hYAK1 was expressed in Drosophila sf9 cells; DET1/DET2 tag (purified on Ni column); made in house; host or cells: "Drosophila sf9 cells" as printed (insect cells)
T1 sequence (Q92630 1-528 isoform Q92630-2): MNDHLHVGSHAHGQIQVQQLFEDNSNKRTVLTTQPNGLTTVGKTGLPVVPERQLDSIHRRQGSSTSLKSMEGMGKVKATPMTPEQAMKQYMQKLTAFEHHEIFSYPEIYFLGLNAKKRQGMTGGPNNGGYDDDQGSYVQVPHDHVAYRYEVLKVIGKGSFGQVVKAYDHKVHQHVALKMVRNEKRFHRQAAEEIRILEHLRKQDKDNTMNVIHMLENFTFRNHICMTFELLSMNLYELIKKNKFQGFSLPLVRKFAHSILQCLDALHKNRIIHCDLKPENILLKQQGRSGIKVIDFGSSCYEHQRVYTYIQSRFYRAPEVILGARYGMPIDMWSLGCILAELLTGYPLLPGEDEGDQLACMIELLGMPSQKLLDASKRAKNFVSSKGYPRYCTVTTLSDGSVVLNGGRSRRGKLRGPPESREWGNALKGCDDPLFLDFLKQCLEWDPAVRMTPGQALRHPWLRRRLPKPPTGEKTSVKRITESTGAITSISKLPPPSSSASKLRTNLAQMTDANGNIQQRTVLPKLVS
Assay: FlashPlate kinase assay of hYAK1 (Ni-hYAK1)
Assay type: biochemical
Experimental: This same assay can be performed on a FlashPlate format in which the plate is coated with MBP or with the S164 peptide by incubation overnight at 4° C. in 100 ul of either substrate dissolved in Sodium Carbonate buffer, pH 8.8. When coating with MBP, a solution of 100 ug/ml MBP was used to coat wells with 100 ul (10 ug) MBP per well. When coating with Ser164, a solution of 0.4 mg/ml (0.25 mM) was used to coat wells with 100 ul (40 ug) Ser164 per well. An example of a FlashPlate assay protocol and typical results are given below:
• 1. Coat Maxisorp plates (Nunk, Immunoplate, Maxisorp™) with MBP or Ser164 as above. • 2. Wash plates once with kinase assay buffer (KB): 25 mM Hepes, pH 7.5; 0.2 mM NaV; 10 mM.-glycerol phosphate; 1 mM Na pyrophosphate • 3. Add enzyme (Ni-hYAK1, diluted in KB), DMSO or inhibitors (in KB) and keep on ice 30 min • 4. Add KB containing Mg/AJP to a [final] of 0.1 mM [.-33P]ATP and 10 mM MgCl2 • 5. Incubate with shaking, 1–2 hrs, RT • 6. Aspirate and wash 6×0.5 ml KB • 7. Read 33P incorporation in FP reader • 8. Blank=No enzyme added • 9. Reaction volume: 25, 50 or 100 ul • 10. 0.5 or 1.0 uCi 33P/0.1 mM ATP • 11. MBP-FP better than basic FP (in house coating) • 12. 37° C. incubation was not better (several time points) • 13. Other incubation times at RT were not better Results: […]

Structure (SMILES) | IC50 (0.3 ug hYAK1) | IC50 (0.1 ug hYAK1)
COC(=O)[C@@]1(O)C[C@H]2O[C@]1(C)n1c3ccccc3c3c4c(c5c6ccccc6n2c5c31)C(=O)NC4 [Example K252a] | 552 nM and 427 nM | –
NC1=N/C(=C2/CCNC(=O)c3[nH]c(Br)cc32)C(=O)N1 [SKF-108752] | 130 nM and 160 nM | 190 nM
